Experimental data from US5621000A, “Nitric esters having a pharmacological activity and process for their preparation” (priority 1992, dated 1997).
Like-named read-outs stand apart in the source and are kept apart here.

Key:
carrageenan paw edema = test: Carrageenan paw edema, anti-inflammatory activity; type: in vivo, Wistar rats; settings: for ANTI-INFLAM. ACTIVITY (power ratio relative to the corresponding acid): carrageenan paw edema, Wistar rats, mean of 10 animals; for efficacy in rat carrageenan paw edema vs reference drugs: p.o., compared with Ketoprofen and Flurbiprofen
Description: (§1) The anti-inflammatory and anti-platelet aggregation activity as well as the gastrointestinal ulcerogenicity, for instance of nitric esters having the following formulae, were tested by means of biological studies: [drawing 16]
The anti-inflammatory activity of said nitric esters was determined in Wistar rats utilizing the method of the carrageenan paw edema, as reported in C. A. WINTER, E. RISLEY, G. W. NUSS, Proc. Soc. Exp. Biol. Med. 111,544 (1962), while the anti-platelet aggregation activity of said derivatives was determined on human platelets stimulated by arachidonic acid, according to the method described by V. BERTELE et al., Science 220,517 (1983).
(§2) The anti-inflammatory and anti-platelet aggregation activity as well as the gastrointestinal ulcerability activity of said derivatives are given on Table 1, and are expressed, for each nitric ester indicated, as the power ratio relative to the corresponding acids non functionalized according to the general formula (I), according to this invention. Each value represents the mean of the values obtained by the treatment of 10 animals.

human platelets = test: Anti-platelet aggregation activity on platelets stimulated by arachidonic acid; type: cell-based
Description: as §1
The anti-inflammatory activity of said nitric esters was determined in Wistar rats utilizing the method of the carrageenan paw edema, as reported in C. A. WINTER, E. RISLEY, G. W. NUSS, Proc. Soc.
as §2

[1] = test system: gastrointestinal ulcerogenicity; test: Gastrointestinal ulcerability after oral administration; type: in vivo, rat
Description: as §1
The gastrointestinal ulcerability was evaluated by oral administration in the rat.
as §2

[2] = test system: plasma nitrate/nitrite levels; test: NO release: plasma nitrate/nitrite levels; type: in vivo; settings: for effect on plasma nitrate/nitrite levels: reference compounds; for increase of plasma nitrate/nitrite levels: one hour after the administration
[3] = test system: leukocyte adherence to mesenteric post-capillary venules; test: Gastric leukocyte adherence/vessel diameter (intravital microscopy); type: in vivo; settings: for blood pressure: one hour period after administration
From the text: GASTRIC LEUKOCYTE ADHERENCE/VESSEL DIAMETER. […] J. Physiol.

non rodents = test: in vivo; type: in vivo; settings: for mortality in non rodents: 10 mg/kg, reference compounds; for tolerability in non rodents: increasing oral doses up to 30 mg/kg, preliminary
gastric mucosa [4] = test: Rat gastric mucosa injury
adjuvant arthritis = test: Rat adjuvant arthritis; type: in vivo; settings: 3 mg/kg p.o., 19 consecutive days (days 3 through 21 after adjuvant injection), compared to controls
phenylquinone writhing = test: Mouse phenylquinone writhing; type: in vivo; settings: 3 to 10 mg/kg p.o.
[5] = test system: prostaglandin E2 in exudate; test: Prostaglandin synthesis in the inflammatory exudate (carrageenan sponge); type: in vivo; settings: for inhibition at 20 mg/kg: po, read-out: inhibition of the formation of prostaglandin E2 in exudate
From the text: PROSTAGLANDIN SYNTHESIS IN THE INFLAMMATORY EXUDATE.
Subcutaneous implantation of carrageenan sponge elicits the infiltration of inflammatory cells, as reported in Nature 284, 271 (1980). […]

[6] = test system: prostaglandin E2 synthesis (gastric); test: Gastric prostaglandin synthesis; type: in vivo; settings: for inhibition of gastric prostaglandin E2 synthesis: at the highest dose (5-20 mg/kg p.o.)
[7] = test system: central nervous, autonomic, cardiovascular, respiratory and gastrointestinal systems; test: General (secondary) pharmacology; type: in vivo; settings: in comparison with Ketoprofen or Flurbiprofen
in vivo = type: in vivo; settings: in vivo, read-out: maximum tolerated dose: highest oral dose without apparent symptoms
[8] = Rat gastric mucosa injury; settings: po
[9] = test system: collagen-induced platelet aggregation; test: In vivo platelet aggregation, collagen-induced; settings: 20 mg/kg p.o. in the rat; for inhibition at 20 mg/kg: Platelet, po, versus controls
From the text: IN VIVO PLATELET AGGREGATION.

gastric mucosa [10] = settings: rat, in vivo, po
mouse = test: Preliminary acute toxicity in the mouse by two administration routes; type: in vivo; settings: oral or intraperitoneal doses of 300 mg/kg
[11] = oral administration in the rat, ratio to corresponding acid, mean of 10 animals
[12] = prior to and during one hour after administration, intravital microscopy

CC(C(=O)O)c1ccc(C(=O)c2cccs2)cc1 (stereo not shown) [Suprofen, reference compound]
ANTI-INFLAM. ACTIVITY (power ratio relative to the corresponding acid) (carrageenan paw edema): 1
ANTI-AGGREG. ACTIVITY (power ratio relative to the corresponding acid) (human platelets): 1
GASTRO-INTESTINAL ULCERABILITY (power ratio relative to the corresponding acid) ([1]; rat, in vivo, po): 1

CCc1cccc2c3c([nH]c12)C(CC)(CC(=O)OCCCCO[N+](=O)[O-])OCC3 (stereo not shown) [(XXVI)]
ANTI-INFLAM. ACTIVITY (power ratio relative to the corresponding acid) (carrageenan paw edema): 1,40
ANTI-AGGREG. ACTIVITY (power ratio relative to the corresponding acid) (human platelets): 1,10
GASTRO-INTESTINAL ULCERABILITY (power ratio relative to the corresponding acid) [1, 11]: 0,33

CC(C(=O)O)c1cccc(C(=O)c2ccccc2)c1 (stereo not shown) [Ketoprofen, 2-(3-benzoylphenyl)propionic acid, reference compound]
effect on plasma nitrate/nitrite levels [2]: did not affect plasma nitrate/nitrite levels significantly
leukocyte adherence to post-capillary venules [3, 12]: Unlike Ketoprofen or Flurbiprofen, (XVIII) or (XII) did not induce significant leukocyte adherence
mortality in non rodents (non rodents): caused the death of the animals
severity of gastric damages (gastric mucosa [4]; 3 to 30 mg/kg p.o.): dose-dependent
dose causing the onset of gastric damages (gastric mucosa [4]; p.o.): ≤ 3 mg/kg

CCC(C(=O)O)c1ccc(N2Cc3ccccc3C2=O)cc1 (stereo not shown) [Indobufen, reference compound]
ANTI-INFLAM. ACTIVITY (power ratio relative to the corresponding acid) (carrageenan paw edema): 1
ANTI-AGGREG. ACTIVITY (power ratio relative to the corresponding acid) (human platelets): 1
GASTRO-INTESTINAL ULCERABILITY (power ratio relative to the corresponding acid) [1, 11]: 1

CC(C(=O)OCCCCO[N+](=O)[O-])c1ccc(-c2ccccc2)c(F)c1 (stereo not drawn) [(XII), nitric ester of 2-fluoro-alpha-methyl-4-diphenyl acetate of 4-hydroxybutyl]
efficacy in rat carrageenan paw edema vs reference drugs (carrageenan paw edema): efficacy comparable with the corresponding reference drugs
reduction in the arthritic symptomatology (adjuvant arthritis): significant and comparative reduction in the arthritic symptomatology
efficacy in phenylquinone writhing (phenylquinone writhing): fully effective
inhibition at 20 mg/kg [5]: > 75%
inhibition of gastric prostaglandin E2 synthesis [6]: more than 90%
increase of plasma nitrate/nitrite levels [2]: more than 50%
blood pressure [3]: No changes in blood pressure were observed
diameter of vessels [3, 12]: increasing the diameter of vessels significantly
leukocyte adherence to post-capillary venules [3, 12]: did not induce significant leukocyte adherence
additional adverse reactions (secondary pharmacological evaluation) [7]: No relevant additional adverse reactions were observed
MTD (in vivo; oral, non rodents, increasing doses up to 30 mg/kg, preliminary): ≥ 30 mg/kg
tolerability in non rodents (non rodents): very well tolerated
NOAEL ([8]; in vivo): ≥ 30 mg/kg

CC(C(=O)OCCCCO[N+](=O)[O-])c1ccc(C(=O)c2cccs2)cc1 (stereo not shown) [(XXIV)]
ANTI-INFLAM. ACTIVITY (power ratio relative to the corresponding acid) (carrageenan paw edema): 1,20
ANTI-AGGREG. ACTIVITY (power ratio relative to the corresponding acid) (human platelets): 1,30
GASTRO-INTESTINAL ULCERABILITY (power ratio relative to the corresponding acid) [1, 11]: 0,35

CCC(C(=O)OCCCCO[N+](=O)[O-])c1ccc(N2Cc3ccccc3C2=O)cc1 (stereo not shown) [(XXV)]
ANTI-INFLAM. ACTIVITY (power ratio relative to the corresponding acid) (carrageenan paw edema): 1,05
ANTI-AGGREG. ACTIVITY (power ratio relative to the corresponding acid) (human platelets): 1,25
GASTRO-INTESTINAL ULCERABILITY (power ratio relative to the corresponding acid) [1, 11]: 0,30

CC(C(=O)O)c1ccc(-c2ccccc2)c(F)c1 (stereo not shown) [Flurbiprofen, reference compound]
inhibition at 20 mg/kg [9]: 40%
effect on plasma nitrate/nitrite levels [2]: did not affect plasma nitrate/nitrite levels significantly
leukocyte adherence to post-capillary venules ([3]; in vivo): Unlike Ketoprofen or Flurbiprofen, (XVIII) or (XII) did not induce significant leukocyte adherence
mortality in non rodents (non rodents): caused the death of the animals
dose causing the onset of gastric damages (gastric mucosa [10]): ≤ 3 mg/kg

CC(C(=O)OCCCCO[N+](=O)[O-])c1cccc(C(=O)c2ccccc2)c1 (stereo not shown) [(XVIII), nitric ester of 2-(3-benzoilphenyl)propionate of 4-hydroxybutyl]
ANTI-INFLAM. ACTIVITY (power ratio relative to the corresponding acid) (carrageenan paw edema): 1,25
efficacy in rat carrageenan paw edema vs reference drugs (carrageenan paw edema): efficacy comparable with the corresponding reference drugs
ANTI-AGGREG. ACTIVITY (power ratio relative to the corresponding acid) (human platelets): 1,35
GASTRO-INTESTINAL ULCERABILITY (power ratio relative to the corresponding acid) [1, 11]: 0,20
reduction in the arthritic symptomatology (adjuvant arthritis): significant and comparative reduction in the arthritic symptomatology
efficaciousness in phenylquinone writhing relative to reference compounds (phenylquinone writhing): almost comparable with that of the corresponding reference compounds
efficacy in phenylquinone writhing (phenylquinone writhing): fully effective
inhibition of platelet aggregation, comparison with Flurbiprofen [9]: significantly more effective than the latter
inhibition at 20 mg/kg [9]: 66%
efficacy on exudate prostaglandin E2 relative to reference compounds ([5]; 20 mg/kg p.o., vs Ketoprofen and Flurbiprofen): comparative efficacy to the corresponding reference compounds
inhibition at 20 mg/kg ([5]; 20 mg/kg p.o., compared with controls): > 75%
inhibition of gastric prostaglandin E2 synthesis relative to reference compounds ([6]; 5-20 mg/kg p.o., vs Ketoprofen and Flurbiprofen): inhibited significantly and comparatively to the corresponding reference compounds
inhibition of gastric prostaglandin E2 synthesis [6]: more than 90%
increase of plasma nitrate/nitrite levels [2]: more than 50%
blood pressure [3]: No changes in blood pressure were observed
diameter of vessels [3, 12]: increasing the diameter of vessels significantly
leukocyte adherence to post-capillary venules [3, 12]: did not induce significant leukocyte adherence
additional adverse reactions (secondary pharmacological evaluation) [7]: No relevant additional adverse reactions were observed
acute toxicity (mouse): No evident toxicity was observed
MTD (in vivo; po): ≥ 30 mg/kg
tolerability in non rodents (non rodents): very well tolerated
NOAEL ([8]; gastric mucosa): ≥ 30 mg/kg
gastric tolerability relative to reference compounds (gastric mucosa [4]; 3 to 30 mg/kg p.o.): significantly better tolerated than reference compounds
